In PubChem BioAssay (NCI):
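Here, GI50 denotes the concentration required for 50% inhibition of growth. TGI marks complete inhibition of growth.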

What was measured:
Test in all cases: DTP human tumour cell line panel, 384-well format
NCI/ADR-RES ovarian = tested on: NCI/ADR-RES ovarian
NCI-H23 lung = tested on: NCI-H23 lung
CAKI-1 renal = tested on: CAKI-1 renal
SF-295 CNS = tested on: SF-295 CNS
NCI-H522 lung = tested on: NCI-H522 lung
OVCAR-3 ovarian = tested on: OVCAR-3 ovarian
HL-60(TB) leukemia = tested on: HL-60(TB) leukemia
CCRF-CEM leukemia = tested on: CCRF-CEM leukemia
ACHN renal = tested on: ACHN renal
MDA-MB-468 breast = tested on: MDA-MB-468 breast
MOLT-4 leukemia = tested on: MOLT-4 leukemia
SK-MEL-28 melanoma = tested on: SK-MEL-28 melanoma
TK-10 renal = tested on: TK-10 renal
UO-31 renal = tested on: UO-31 renal
IGROV1 ovarian = tested on: IGROV1 ovarian
SR leukemia = tested on: SR leukemia
M14 melanoma = tested on: M14 melanoma
SF-539 CNS = tested on: SF-539 CNS
OVCAR-5 ovarian = tested on: OVCAR-5 ovarian
NCI-H226 lung = tested on: NCI-H226 lung
HS 578T breast = tested on: HS 578T breast
OVCAR-4 ovarian = tested on: OVCAR-4 ovarian
DU-145 prostate = tested on: DU-145 prostate
SNB-75 CNS = tested on: SNB-75 CNS
SF-268 CNS = tested on: SF-268 CNS
HCC-2998 colon = tested on: HCC-2998 colon
NCI-H460 NSCLC = tested on: NCI-H460 NSCLC
NCI-H322M lung = tested on: NCI-H322M lung
MDA-MB-435 melanoma = tested on: MDA-MB-435 melanoma
A549 NSCLC = tested on: A549 NSCLC
UACC-62 melanoma = tested on: UACC-62 melanoma
HT29 colon = tested on: HT29 colon
786-0 renal = tested on: 786-0 renal
SW-620 colon = tested on: SW-620 colon
RPMI-8226 leukemia = tested on: RPMI-8226 leukemia
K-562 leukemia = tested on: K-562 leukemia
EKVX NSCLC = tested on: EKVX NSCLC
MDA-MB-231 breast = tested on: MDA-MB-231 breast
SK-OV-3 ovarian = tested on: SK-OV-3 ovarian
OVCAR-8 ovarian = tested on: OVCAR-8 ovarian
RXF 393 renal = tested on: RXF 393 renal
HCT-15 colon = tested on: HCT-15 colon
SN12C renal = tested on: SN12C renal
PC-3 prostate = tested on: PC-3 prostate
MALME-3M melanoma = tested on: MALME-3M melanoma
UACC-257 melanoma = tested on: UACC-257 melanoma
HOP-62 NSCLC = tested on: HOP-62 NSCLC
MCF7 breast = tested on: MCF7 breast
HOP-92 NSCLC = tested on: HOP-92 NSCLC
U251 glioblastoma = tested on: U251 glioblastoma
A498 renal = tested on: A498 renal
KM12 colon = tested on: KM12 colon
COLO 205 colon = tested on: COLO 205 colon
LOX IMVI melanoma = tested on: LOX IMVI melanoma
T-47D breast = tested on: T-47D breast
BT-549 breast = tested on: BT-549 breast
SNB-19 CNS = tested on: SNB-19 CNS

CCNC(=O)c1noc(-c2cc(C(C)C)c(O)cc2O)c1-c1ccc(CN2CCOCC2)cc1
GI50 (NCI/ADR-RES ovarian): 0.0669 µM
TGI (NCI/ADR-RES ovarian): 0.269 µM
GI50 (NCI-H23 lung): < 0.01 µM
TGI (NCI-H23 lung): < 0.01 µM
GI50 (CAKI-1 renal): < 0.01 µM
TGI (CAKI-1 renal): 12.6 µM
GI50 (SF-295 CNS): 0.0247 µM
TGI (SF-295 CNS): 0.115 µM
GI50 (NCI-H522 lung): < 0.01 µM
TGI (NCI-H522 lung): 0.0236 µM
GI50 (OVCAR-3 ovarian): < 0.01 µM
TGI (OVCAR-3 ovarian): < 0.01 µM
GI50 (HL-60(TB) leukemia): < 0.01 µM
TGI (HL-60(TB) leukemia): < 0.01 µM
GI50 (CCRF-CEM leukemia): < 0.01 µM
TGI (CCRF-CEM leukemia): < 0.01 µM
GI50 (ACHN renal): < 0.01 µM
TGI (ACHN renal): 15.5 µM
GI50 (MDA-MB-468 breast): < 0.01 µM
TGI (MDA-MB-468 breast): < 0.01 µM
GI50 (MOLT-4 leukemia): < 0.01 µM
TGI (MOLT-4 leukemia): < 0.01 µM
GI50 (SK-MEL-28 melanoma): < 0.01 µM
TGI (SK-MEL-28 melanoma): 0.0428 µM
GI50 (TK-10 renal): 0.0244 µM
TGI (TK-10 renal): 0.081 µM
GI50 (UO-31 renal): 0.0494 µM
TGI (UO-31 renal): > 100 µM
GI50 (IGROV1 ovarian): 0.0121 µM
TGI (IGROV1 ovarian): 0.037 µM
GI50 (SR leukemia): < 0.01 µM
TGI (SR leukemia): < 0.01 µM
GI50 (M14 melanoma): < 0.01 µM
TGI (M14 melanoma): 11.2 µM
GI50 (SF-539 CNS): < 0.01 µM
TGI (SF-539 CNS): < 0.01 µM
GI50 (OVCAR-5 ovarian): 0.0169 µM
TGI (OVCAR-5 ovarian): 0.0761 µM
GI50 (NCI-H226 lung): < 0.01 µM
TGI (NCI-H226 lung): 11.7 µM
GI50 (HS 578T breast): < 0.01 µM
TGI (HS 578T breast): < 0.01 µM
GI50 (OVCAR-4 ovarian): < 0.01 µM
TGI (OVCAR-4 ovarian): < 0.01 µM
GI50 (DU-145 prostate): < 0.01 µM
TGI (DU-145 prostate): < 0.01 µM
GI50 (SNB-75 CNS): < 0.01 µM
TGI (SNB-75 CNS): < 0.01 µM
GI50 (SF-268 CNS): < 0.01 µM
TGI (SF-268 CNS): 10.7 µM
GI50 (HCC-2998 colon): < 0.01 µM
TGI (HCC-2998 colon): < 0.01 µM
GI50 (NCI-H460 NSCLC): < 0.01 µM
TGI (NCI-H460 NSCLC): < 0.01 µM
GI50 (NCI-H322M lung): < 0.01 µM
TGI (NCI-H322M lung): 12.2 µM
GI50 (MDA-MB-435 melanoma): < 0.01 µM
TGI (MDA-MB-435 melanoma): 14.9 µM
GI50 (A549 NSCLC): < 0.01 µM
TGI (A549 NSCLC): 10.7 µM
GI50 (UACC-62 melanoma): < 0.01 µM
TGI (UACC-62 melanoma): < 0.01 µM
GI50 (HT29 colon): 0.0859 µM
TGI (HT29 colon): 10.4 µM
GI50 ([…]-0 renal): < 0.01 µM
TGI (786-0 renal): 0.0304 µM
GI50 (SW-620 colon): < 0.01 µM
TGI (SW-620 colon): < 0.01 µM
GI50 (RPMI-8226 leukemia): < 0.01 µM
TGI (RPMI-8226 leukemia): < 0.01 µM
GI50 (K-562 leukemia): < 0.01 µM
TGI (K-562 leukemia): < 0.01 µM
GI50 (EKVX NSCLC): < 0.01 µM
TGI (EKVX NSCLC): 1.03 µM
GI50 (MDA-MB-231 breast): < 0.01 µM
TGI (MDA-MB-231 breast): < 0.01 µM
GI50 (SK-OV-3 ovarian): < 0.01 µM
TGI (SK-OV-3 ovarian): 11 µM
GI50 (OVCAR-8 ovarian): < 0.01 µM
TGI (OVCAR-8 ovarian): < 0.01 µM
GI50 (RXF 393 renal): < 0.01 µM
TGI (RXF 393 renal): < 0.01 µM
GI50 (HCT-15 colon): < 0.01 µM
TGI (HCT-15 colon): 10.4 µM
GI50 (SN12C renal): < 0.01 µM
TGI (SN12C renal): 0.028 µM
GI50 (PC-3 prostate): < 0.01 µM
TGI (PC-3 prostate): 0.0296 µM
GI50 (MALME-3M melanoma): < 0.01 µM
TGI (MALME-3M melanoma): < 0.01 µM
GI50 (UACC-257 melanoma): < 0.01 µM
TGI (UACC-257 melanoma): 0.42 µM
GI50 (HOP-62 NSCLC): < 0.01 µM
TGI (HOP-62 NSCLC): 0.0131 µM
GI50 (MCF7 breast): < 0.01 µM
TGI (MCF7 breast): 0.0112 µM
GI50 (HOP-92 NSCLC): < 0.01 µM
TGI (HOP-92 NSCLC): < 0.01 µM
GI50 (U251 glioblastoma): < 0.01 µM
TGI (U251 glioblastoma): 0.0297 µM
GI50 (A498 renal): < 0.01 µM
TGI (A498 renal): 3.88 µM
GI50 (KM12 colon): < 0.01 µM
TGI (KM12 colon): 0.013 µM
GI50 (COLO 205 colon): 0.0207 µM
TGI (COLO 205 colon): 0.157 µM
GI50 (LOX IMVI melanoma): < 0.01 µM
TGI (LOX IMVI melanoma): < 0.01 µM
GI50 (T-47D breast): < 0.01 µM
TGI (T-47D breast): 0.0448 µM
GI50 (BT-549 breast): < 0.01 µM
TGI (BT-549 breast): < 0.01 µM
GI50 (SNB-19 CNS): 0.0131 µM
TGI (SNB-19 CNS): 0.0637 µM
